Where a name gives a salt, the structure may show the parent alone.
Legend:
[1] = system: catechol-O-methyltransferase; settings: background statement; cited from earlier work
[2] = background statement; cited from earlier work
[3] = dobutamine plasma levels in anesthetized rats after intravenous bolus and intranasal saline solution; type: in vivo; settings: rat
Protocol: According to the present invention, it has been unexpectedly discovered that a catecholamine can be formulated for nasal administration and upon administration achieve equivalent bioavailability as compared to intravenous administration. The purpose of the following study is to examine the bioavailability of the catecholamine dobutamine when administered intranasally and intravenously.
Six male rats weighing 280 g were anesthetized with sodium pentobarbital (50 mg/kg I.P.). Three rats were dosed intravenously with dobutamine hydrochloride at 2.5 mg/kg. Blood samples were taken at 0.5, 2, 4, 6, 10, 15, 20 and 30 minutes for dobutamine plasma analysis. The three remaining rats received dobutamine at 2.5 mg/kg intranasally in a saline solution. Blood samples from these rats were taken at 1, 5, 10, 20, 30, 60 and 120 minutes.
As is known, the one time intravenous administration of dobutamine hydrochloride at 2.5 mg/kg produced a very high dobutamine blood level (greater than 1000 ng/ml) within 30 seconds after administration. The duration of dobutamine in the blood as a result of this method of administration was brief however, lasting only for a period of approximately 30 minutes. For comparison, 1.456 mg of dobutamine hydrochloride was dissolved in 0.2 ml of saline solution and 0.1 ml of this solution was administered intranasally to a 291 g rat to provide a dose of 2.5 mg/kg. […] The intranasal delivery of dobutamine produced a moderate dobutamine blood level of 100 ng/ml after 20 minutes.
The area under the curve (AUC) was calculated with computer assistance employing the trapezoidal method for each route of administration.

SMILES | biotransformation by catechol-O-methyltransferase [1] | half-life in the body [2] | concentration at 20 min ([3]; blood, intranasal saline solution 2.5 mg/kg, after 20 minutes, read-out: dobutamine blood level) | concentration at 0.5 min ([3]; blood, intravenous bolus 2.5 mg/kg, within 30 seconds after administration, average of three, read-out: dobutamine blood level) | AUC at 0.5 h ([3]; plasma, IV bolus 2.5 mg/kg, trapezoidal method, sampled 0.5-30 minutes, read-out: Area Under the Curve (AUC) (converted)) | AUC at 2 h ([3]; plasma, intranasal saline solution 2.5 mg/kg, trapezoidal method, sampled 1-120 minutes, read-out: Area Under the Curve (AUC) (converted)) | persistence of effective blood level ([3]; intranasal saline solution 2.5 mg/kg, after two hours) | duration of dobutamine in the blood ([3]; intravenous bolus 2.5 mg/kg)
CC(CCc1ccc(O)cc1)NCCc1ccc(O)c(O)c1 (racemic) [dobutamine, (+,-) 4-[2-[[3-(p-hydroxyphenyl)-1-methylpropyl]amino]ethyl]pyrocatechol] | very rapidly biotransformed | 2 min | – | – | – | – | – | –
CC(CCc1ccc(O)cc1)NCCc1ccc(O)c(O)c1 (centres unmarked) [dobutamine hydrochloride] | – | – | 100 ng/mL | > 1000 ng/mL | 37.1 ng·h/mL | 188 ng·h/mL | effective blood level remained after two hours | approximately 30 minutes
